This experiment is described as follows: Inhibition of lanosterol 14-alpha-demethylase in hamster hepatic microsomes.

The Ki is a dissociation constant, usually derived from enzyme kinetics or from competition with a known ligand. Higher therefore signals a looser hold on the target. Compound `CC(=O)N1CCN(c2ccc(OC[C@@H]3CO[C@@](Cn4ccnc4)(c4ccc(Cl)cc4Cl)O3)cc2)CC1` [Nizoral] yielded a Ki of 25 nM.

Values taken from BindingDB's records for doi:10.1021/jm00067a022 (Syntex Discovery Research, 1993).
